Species: Rattus norvegicus
Assay: Inhibition of rat recombinant geranylgeranyltransferase type I expressed in Escherichia coli assessed as residual enzyme activity for geranylgeranylation of K-Ras4B at 50 uM incubated for 30 mins in presence of [3H]GGPP by scintillation counting assay relative to control

Activity [%]	SMILES
67.1	COc1cccc([C@@H]2CC=C(C(=O)O)[C@H](c3cccc(Cl)c3)N2S(=O)(=O)c2ccc(C)cc2)c1
45.5	Cc1cccc([C@H]2C(C(=O)O)=CC[C@@H](c3ccc(Cl)cc3)N2S(C)(=O)=O)c1
75.6	Cc1ccc([C@@H]2CC=C(C(=O)O)[C@H](c3cccc(Br)c3)N2S(=O)(=O)c2ccc(C)cc2)cc1
72.4	CS(=O)(=O)N1[C@@H](c2cccc(Cl)c2)C(C(=O)O)=CC[C@H]1c1ccccc1
50.9	Cc1ccc(S(=O)(=O)N2[C@@H](c3ccc(F)cc3)C(C(=O)O)=CC[C@H]2c2ccc(C(C)C)cc2)cc1
87.5	CCOc1ccc([C@@H]2CC=C(C(=O)O)[C@H](c3cccc(F)c3)N2S(=O)(=O)c2ccc(C)cc2)cc1
87.8	COc1ccc([C@@H]2CC=C(C(=O)O)[C@H](c3cccc(Cl)c3)N2S(=O)(=O)c2ccc(C)cc2)cc1OC
60.7	Cc1ccc([C@H]2C(C(=O)O)=CC[C@@H](c3ccc(Cl)cc3)N2S(=O)(=O)c2ccc(C)cc2)cc1
86.7	CCCCCS[C@@H]1C[C@@H](c2ccc(OC)cc2)N(S(=O)(=O)c2ccc(C)cc2)C[C@H]1C(=O)O
79.7	COc1ccc([C@@H]2C[C@@H](SCC(C)C)[C@H](C(=O)O)CN2S(=O)(=O)c2ccccc2C)cc1
90.9	Cc1ccc(S(=O)(=O)N2[C@@H](c3cccc(F)c3)C(C(=O)O)=CC[C@H]2c2ccc3c(c2)OCO3)cc1
83.1	CCCCS[C@@H]1C[C@@H](c2ccc(OC)cc2)N(S(=O)(=O)c2ccccc2)C[C@H]1C(=O)O
84.5	Cc1ccc([C@@H]2CC=C(C(=O)O)[C@H](c3ccc(Br)cc3)N2S(C)(=O)=O)cc1
56.2	COC(=O)c1ccccc1S(=O)(=O)N1[C@@H](c2cccc(Cl)c2)C(C(=O)O)=CC[C@H]1c1ccc(C)cc1
58.3	CCCCS[C@@H]1C[C@@H](c2ccc(CC)cc2)N(S(=O)(=O)c2ccc(C)cc2)C[C@H]1C(=O)O
112	COc1ccc([C@@H]2C[C@@H](SC3CCCC3)[C@H](C(=O)O)CN2S(=O)(=O)c2ccc(C)cc2)cc1OC
51.9	COc1ccc([C@@H]2CC=C(C(=O)O)[C@H](c3cccc(Br)c3)N2S(=O)(=O)c2ccccc2C)cc1
102	CC(=O)C1=CC[C@@H](c2cccc(C)c2)N(S(=O)(=O)c2ccc(C)cc2)C1
49.3	Cc1ccc(S(=O)(=O)N2C[C@@H](C(=O)O)[C@H](Sc3ccccc3)C[C@H]2c2ccccc2)cc1
87.1	CCOc1ccc([C@@H]2C[C@@H](SCC)[C@H](C(=O)O)CN2S(=O)(=O)c2ccc(C)cc2)cc1
45.1	Cc1ccc(S(=O)(=O)N2[C@@H](c3cccc(F)c3)C(C(=O)O)=CC[C@H]2c2ccc(Cl)c(Cl)c2)cc1
71.3	Cc1ccc(S(=O)(=O)N2[C@@H](c3cccc(Cl)c3)C(C(=O)O)=CC[C@H]2c2ccccc2)cc1
75	Cc1ccc([C@@H]2CC=C(C(=O)O)[C@H](c3cccc(F)c3)N2S(C)(=O)=O)cc1
94.1	C=CCS[C@@H]1C[C@@H](c2ccc(C)cc2)N(S(=O)(=O)c2ccc(C)cc2)C[C@H]1C(=O)O
66.8	Cc1ccc(S(=O)(=O)N2[C@@H](c3ccc(F)cc3)C(C(=O)O)=CC[C@H]2c2ccc(F)cc2)cc1
61.3	COc1ccc([C@@H]2CC=C(C(=O)O)[C@H](c3cccc(C)c3)N2S(=O)(=O)c2ccccc2C)cc1

Activity [%]	SMILES
43.1	Cc1ccccc1S(=O)(=O)N1C[C@@H](C(=O)O)[C@H](SCc2ccc(C(C)(C)C)cc2)C[C@H]1c1ccc(Cl)cc1
68.1	Cc1ccc(S(=O)(=O)N2[C@@H](c3ccc(Cl)cc3)C(C(=O)O)=CC[C@H]2c2cccc(Br)c2)cc1
90.1	CCS[C@@H]1C[C@@H](c2ccc(C)cc2)N(S(=O)(=O)c2ccc(C)cc2)C[C@H]1C(=O)O
60.7	COc1ccc([C@@H]2CC=C(C(=O)O)[C@H](c3cccc(Br)c3)N2S(=O)(=O)c2ccc(Cl)cc2)cc1
46.9	Cc1ccc(S(=O)(=O)N2[C@@H](c3cccc(C)c3)C(C(=O)O)=CC[C@H]2c2cccc(Cl)c2)cc1
58.4	Cc1ccc(S(=O)(=O)N2C[C@@H](C(=O)O)[C@H](SCCC(C)C)C[C@H]2c2ccccc2F)cc1
93.6	CCCCCCS[C@@H]1C[C@@H](c2cc(OC)c(OC)c(OC)c2)N(S(=O)(=O)c2ccc(C)cc2)C[C@H]1C(=O)O
90.6	CC(=O)C1=CC[C@@H](c2ccc(C)cc2)N(S(=O)(=O)c2ccc(C)cc2)C1
78.1	Cc1ccc(S(=O)(=O)N2[C@@H](c3cccc(C)c3)C(C(=O)O)=CC[C@H]2c2ccc(F)cc2)cc1
83.1	CCCCCCS[C@@H]1C[C@@H](c2ccc(C)cc2)N(S(C)(=O)=O)C[C@H]1C(=O)O
57.7	O=C(O)C1=CC[C@@H](c2ccc(Cl)cc2)N(S(=O)(=O)c2ccc(Cl)cc2)[C@H]1c1ccc(Cl)cc1
53.9	Cc1ccc([C@H]2C(C(=O)O)=CC[C@@H](c3ccc(Cl)cc3)N2S(=O)(=O)c2ccc(Cl)cc2)cc1
89.9	CCS[C@@H]1C[C@@H](c2ccc(OC)cc2)N(S(=O)(=O)c2ccccc2)C[C@H]1C(=O)O
95.6	CC(=O)C1=CC[C@@H](c2cccc3ccccc23)N(S(=O)(=O)c2ccc(C)cc2)C1
90.6	Cc1ccc([C@H]2C(C(=O)O)=CC[C@@H](c3ccc(Cl)cc3)N2S(C)(=O)=O)cc1
101	COc1ccc(S[C@@H]2C[C@@H](c3cccc(OC)c3)N(S(=O)(=O)c3ccc(C)cc3)C[C@H]2C(=O)O)cc1
109	CCCCCS[C@@H]1C[C@@H](c2ccc(OC)c(OC)c2)N(S(=O)(=O)c2ccc(C)cc2)C[C@H]1C(=O)O
50.9	CCOc1ccc([C@@H]2C[C@@H](SCc3ccccc3)[C@H](C(=O)O)CN2S(=O)(=O)c2ccc(C)cc2)cc1
64.9	Cc1ccc([C@@H]2CC=C(C(=O)O)[C@H](c3cccc(F)c3)N2S(=O)(=O)c2ccccc2)cc1
88.9	CCCS[C@@H]1C[C@@H](c2ccc(OC)cc2)N(S(=O)(=O)c2ccc(C)cc2)C[C@H]1C(=O)O
68.9	CCCCCCS[C@@H]1C[C@@H](c2cccc(Br)c2)N(S(=O)(=O)c2ccc(C)cc2)C[C@H]1C(=O)O
94.8	CCS[C@@H]1C[C@@H](c2ccc(C)cc2)N(S(C)(=O)=O)C[C@H]1C(=O)O
73.5	Cc1ccc(S(=O)(=O)N2[C@@H](c3ccc(Br)cc3)C(C(=O)O)=CC[C@H]2c2cccc(C)c2)cc1
63.5	Cc1ccc(S(=O)(=O)N2[C@@H](c3ccc(Cl)cc3)C(C(=O)O)=CC[C@H]2c2cccc(F)c2)cc1
63.7	Cc1ccc([C@H]2C(C(=O)O)=CC[C@@H](c3ccc(C(C)C)cc3)N2S(=O)(=O)c2ccc(C)cc2)cc1
68.1	Cc1ccc([C@@H]2CC=C(C(=O)O)[C@H](c3ccc(Br)cc3)N2S(=O)(=O)c2ccc(C)cc2)cc1

Activity [%]	SMILES
75.4	CCc1ccc([C@@H]2CC=C(C(=O)O)[C@H](c3cccc(Br)c3)N2S(=O)(=O)c2ccc(C)cc2)cc1
97.3	Cc1ccccc1S(=O)(=O)N1[C@@H](c2ccc(C(C)(C)C)cc2)C(C(=O)O)=CC[C@H]1c1ccc(Cl)cc1
98	Cc1ccc(S[C@@H]2C[C@@H](c3ccccc3)N(S(=O)(=O)c3ccc(C)cc3)C[C@H]2C(=O)O)cc1
71.2	Cc1ccc(S(=O)(=O)N2[C@@H](c3ccc(F)cc3)C(C(=O)O)=CC[C@H]2c2cccc(C)c2)cc1
100	COc1ccc(S[C@@H]2C[C@@H](c3ccc4c(c3)OCO4)N(S(=O)(=O)c3ccc(C)cc3)C[C@H]2C(=O)O)cc1
35	COc1cccc([C@@H]2C[C@@H](SCc3ccccc3)[C@H](C(=O)O)CN2S(=O)(=O)c2ccc(C)cc2)c1
58.2	Cc1ccc(S(=O)(=O)N2[C@@H](c3ccc(Cl)cc3)C(C(=O)O)=CC[C@H]2c2ccccc2F)cc1
81.6	Cc1ccc([C@@H]2CC=C(C(=O)O)[C@H](c3ccc(C(C)(C)C)cc3)N2S(=O)(=O)c2ccccc2)cc1
52.8	Cc1ccc(S(=O)(=O)N2[C@@H](c3ccc(Cl)cc3)C(C(=O)O)=CC[C@H]2c2ccc(Cl)cc2)cc1
93.5	Cc1ccc([C@@H]2C[C@@H](SC3CCCC3)[C@H](C(=O)O)CN2S(=O)(=O)c2ccccc2C)cc1
54.5	COc1ccc([C@@H]2C[C@@H](SCc3ccccc3)[C@H](C(=O)O)CN2S(=O)(=O)c2ccc(C)cc2)cc1OC
78.8	CCCS[C@@H]1C[C@@H](c2cccc(Cl)c2)N(S(=O)(=O)c2ccc(C)cc2)C[C@H]1C(=O)O
75.3	COc1ccc([C@@H]2C[C@@H](SCCc3ccccc3)[C@H](C(=O)O)CN2S(=O)(=O)c2ccc(Cl)cc2)cc1
81.7	Cc1ccc(S(=O)(=O)N2C[C@@H](C(=O)O)[C@H](SCC(C)C)C[C@H]2c2ccc3c(c2)OCO3)cc1
82.8	Cc1ccc(S(=O)(=O)N2[C@@H](c3ccc(C(C)(C)C)cc3)C(C(=O)O)=CC[C@H]2c2cccc(Br)c2)cc1
70.2	COc1ccc([C@@H]2C[C@@H](SCC(C)C)[C@H](C(=O)O)CN2S(=O)(=O)c2ccccc2)cc1
110	CC(C)(C)c1ccc([C@H]2C(C(=O)O)=CC[C@@H](c3ccc(Cl)cc3)N2S(=O)(=O)c2ccc(Cl)cc2)cc1
87.1	Cc1ccc([C@@H]2C[C@@H](Sc3ccccc3)[C@H](C(=O)O)CN2S(=O)(=O)c2ccc(Cl)cc2)cc1
49.1	C=CCS[C@@H]1C[C@@H](c2ccc(Cl)cc2)N(S(=O)(=O)c2ccc(C)cc2)C[C@H]1C(=O)O
112	COc1ccc([C@@H]2C[C@@H](Sc3ccccc3)[C@H](C(=O)O)CN2S(=O)(=O)c2ccc(C)cc2)cc1OC
87.2	Cc1ccc(S(=O)(=O)N2[C@@H](c3ccc(C(C)(C)C)cc3)C(C(=O)O)=CC[C@H]2c2ccc3c(c2)OCO3)cc1
81.5	CCCCS[C@@H]1C[C@@H](c2ccc(Cl)cc2)N(S(=O)(=O)c2ccc(C)cc2)C[C@H]1C(=O)O
51	Cc1ccc([C@@H]2C[C@@H](SCC(C)C)[C@H](C(=O)O)CN2S(=O)(=O)c2ccccc2)cc1
63.1	CCc1ccc([C@@H]2C[C@@H](SCc3ccccc3)[C@H](C(=O)O)CN2S(=O)(=O)c2ccc(C)cc2)cc1
105	COc1ccc([C@@H]2C[C@@H](SCc3ccccc3)[C@H](C(=O)O)CN2S(=O)(=O)c2ccc(C)cc2)cc1

Source: ChEMBL document CHEMBL4421722, “Inhibitors of protein prenyltransferases” (2013)
